Reference: patent US20130143929A1, “FUNGICIDAL IMIDAZOLES” (EI DU PONT DE NEMOURS AND COMPANY, priority 2010, published 2013)
Marks after values point to notes of the source that are not given here.

What was measured:
Format in all cases: in vivo
[1] = system: Puccinia recondite f. sp. tritici (the causal agent of wheat leaf rust); assay: Test A: wheat leaf rust, preventive spray on wheat seedlings, visual disease rating; conditions: for Test A rating (100 = 100% disease control, 0 = no disease control relative to the controls): wheat leaf rust, preventive spray on wheat seedlings; for Test A rating (% disease control, wheat leaf rust): no asterisk: standard test suspension concentration, 100 = 100% disease control, 0 = no control relative to controls
In short: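 This was a preventive test: Puccinia recondite f. sp. tritici inoculum was applied one day after compound spray to run-off. Test suspensions were made in 50/50 acetone/water with 250 ppm surfactant, at 200 ppm (800 g/ha equivalent) or 40 ppm. Visual ratings of % disease control relative to controls were made after 24 h of saturated humidity and 7 growth-chamber days, all at 20° C.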

[2] = system: Botrytis cinerea (the causal agent of tomato Botrytis); assay: Test C: tomato Botrytis, preventive spray on tomato seedlings, visual disease rating; conditions: for Test C rating (100 = 100% disease control, 0 = no disease control relative to the controls): tomato Botrytis, preventive spray on tomato seedlings; for Test C rating (% disease control, tomato Botrytis): no asterisk: standard test suspension concentration, 100 = 100% disease control, 0 = no control relative to controls
In short: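 Preventive test: B. cinerea spore inoculation one day after tomato seedlings were sprayed to run-off with compound suspended in 50/50 acetone–water plus 250 ppm surfactant. Plants held 48 h at 20° C in saturated air, then 3 days at 24° C; visual ratings scored 100 (full control) to 0 versus controls; some entries used 40 ppm.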

[3] = system: Septoria tritici (the causal agent of wheat leaf blotch); assay: Test B: wheat leaf blotch, preventive spray on wheat seedlings, visual disease rating; conditions: for Test B rating (100 = 100% disease control, 0 = no disease control relative to the controls): wheat leaf blotch, preventive spray on wheat seedlings; for Test B rating (% disease control, wheat leaf blotch): no asterisk: standard test suspension concentration, 100 = 100% disease control, 0 = no control relative to controls
In short: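 Preventive test: Septoria tritici spores applied one day after run-off spraying of seedlings (200 ppm equals 800 g/ha; some tests 40 ppm). After 48 h at 24 °C saturated atmosphere and 19 days at 20 °C, disease scored visually as % control relative to untreated plants.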

[4] = system: Blumeria graminis f. sp. tritici (also known as Erysiphe graminis f. sp. tritici, the causal agent of wheat powdery mildew); assay: Test D: wheat powdery mildew, preventive spray on wheat seedlings, visual disease rating; conditions: for Test D rating (100 = 100% disease control, 0 = no disease control relative to the controls): wheat powdery mildew, preventive spray on wheat seedlings; for Test D rating (% disease control, wheat powdery mildew): no asterisk: standard test suspension concentration, 100 = 100% disease control, 0 = no control relative to controls
In short: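 Preventive test: seedlings sprayed to run-off and inoculated with powdery mildew spores one day later. Suspensions were made in 50/50 acetone/water with 250 ppm Trem 014 surfactant (200 ppm equals 800 g/ha). Visual ratings after 8 days at 20 °C give percent disease control versus controls.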

[5] = asterisk: 40 ppm test suspension
[6] = no asterisk (standard test suspension concentration, not 40 ppm)

| SMILES | Test A rating (100 = 100% disease control, 0 = no disease control relative to the controls) [1, 5] | Test C rating (100 = 100% disease control, 0 = no disease control relative to the controls) [2, 5] | Test B rating (100 = 100% disease control, 0 = no disease control relative to the controls) [3, 5] | Test D rating (100 = 100% disease control, 0 = no disease control relative to the controls) [4, 5] | Test A rating (100 = 100% disease control, 0 = no disease control relative to the controls) [1, 6] | Test C rating (100 = 100% disease control, 0 = no disease control relative to the controls) [2, 6] | Test B rating (100 = 100% disease control, 0 = no disease control relative to the controls) [3, 6] | Test D rating (100 = 100% disease control, 0 = no disease control relative to the controls) [4, 6] | other results |
| --- | --- | --- | --- | --- | --- | --- | --- | --- | --- |
| OC(c1ccc(F)cc1F)c1c(Cl)nc(Br)n1-c1c(F)cc(F)cc1Cl (stereo not drawn) [compound 121] | 100* % | 100* % | 100* % | 98* % |  |  |  |  |  |
| Cc1cc(F)ccc1C(O)c1c(Cl)nc(C)n1-c1c(F)cccc1Br (stereo not drawn) [compound 407] |  |  |  |  |  |  |  |  | Test A rating (% disease control, wheat leaf rust) [1]: 99%; Test C rating (% disease control, tomato Botrytis) [2]: 52%; Test B rating (% disease control, wheat leaf blotch) [3]: 100%; Test D rating (% disease control, wheat powdery mildew) [4]: 0% |
| COc1ccc(C(O)c2c(Cl)nc(C)n2-c2ccc(F)cc2Br)c(Cl)c1 (stereo not drawn) [compound 333] | 95* % | 99* % | 72* % | 86* % |  |  |  |  |  |
| Cc1ccc(C(O)c2c(Cl)nc(C)n2-c2c(F)cccc2F)c(F)c1 (stereo not drawn) [compound 55] | 100* % | 98* % | 100* % | 98* % |  |  |  |  |  |
| OC(c1ccc(F)cc1Cl)c1cnc(C2CC2)n1-c1c(F)cccc1Br (stereo not drawn) [compound 75] |  |  |  |  | 94% | 0% | 1% | 0% |  |
| COc1ccc(C(O)c2c(Br)ncn2-c2c(F)cccc2Cl)c(C)c1 (racemic) [compound 222] | 91* % | 30* % | 57* % | 0* % |  |  |  |  |  |
| Cc1ncc(C(O)c2c(F)cc(Cl)cc2F)n1-c1ccc(F)cc1Cl (stereo not drawn) [compound 359] |  |  |  |  | 68% | 0% | 0% | 0% |  |
| OC(c1c(F)cc(F)cc1F)c1c(Cl)nc(Cl)n1-c1ccc(F)cc1Cl (stereo not drawn) [compound 49] |  |  |  |  | 100% | 100% | 100% | 100% |  |
| Cc1nc(Br)n(-c2c(F)cc(F)cc2Cl)c1C(O)c1ccc(F)cc1F (racemic) [compound 250] | 100* % | 100* % | 100* % | 100* % |  |  |  |  |  |
| Cc1cc(F)ccc1C(O)c1cnc(C)n1-c1c(F)cccc1Br (stereo not drawn) [compound 405] |  |  |  |  |  |  |  |  | Test A rating (% disease control, wheat leaf rust) [1]: 99%; Test C rating (% disease control, tomato Botrytis) [2]: 9%; Test B rating (% disease control, wheat leaf blotch) [3]: 94%; Test D rating (% disease control, wheat powdery mildew) [4]: 0% |
| Cc1cc(F)ccc1C(O)c1c(Br)nc(C)n1-c1c(F)cccc1Cl (stereo not drawn) [compound 186] | 99* % | 99* % | 100* % | 97* % |  |  |  |  |  |
| Cc1ncc(C(O)c2ccc(F)cc2Cl)n1-c1c(F)cccc1Br (stereo not drawn) [compound 73] |  |  |  |  | 100% | 99% | 100% | 0% |  |
